Test: xn = mol fraction of the nth substance listed
Conditions: Maximal bubble pressure

F.[F-].[Na+] [sodium hydrogen fluoride] + [F][Al]([F])[F]
Conditions | surface tension liquid-gas [mN/m]
1130.2 K, x1 = 0.6 | 92.04
1159.2 K, x1 = 0.6 | 89.61
1184.2 K, x1 = 0.6 | 87.51
1215.2 K, x1 = 0.6 | 84.94
1239.7 K, x1 = 0.6 | 82.84
1274.2 K, x1 = 0.6667 | 105.93
1297.2 K, x1 = 0.6667 | 104.59
1297.2 K, x1 = 0.7143 | 121.35
1299.2 K, x1 = 0.75 | 132.71
1318.2 K, x1 = 0.7143 | 118.25
1318.2 K, x1 = 0.75 | 130.09
1319.2 K, x1 = 0.6667 | 103.14
1329.2 K, x1 = 0.7143 | 116.62
1339.2 K, x1 = 0.75 | 127.18
1340.2 K, x1 = 0.6667 | 101.57
1348.2 K, x1 = 0.7143 | 113.82
1368.2 K, x1 = 0.7143 | 110.87
1370.2 K, x1 = 0.75 | 122.89

— the NIST ThermoML archive (doi:10.1021/je901079k)
